From patent publication US9428514B2, “Bromodomain inhibitors” (AbbVie Inc., priority 2013, dated 2016)

Test system: breast cancer cell line MX-1
Assay: MX-1 cell line proliferation assay (3-day, Cell Titer Glo)
Type: cell-based
Settings: Homo sapiens, MX1, MX-1 cells, 72 hours, read-out: Cellular proliferation: EC50
Procedure: The impact of compounds of the Examples on cancer cell proliferation was determined using the breast cancer cell line MX-1 (ATCC) in a 3-day proliferation assay. MX-1 cells were maintained in RPMI supplemented with 10% FBS at 37° C. and an atmosphere of 5% CO2. For compound testing, MX-1 cells were plated in 96-well black bottom plates at a density of 5000 cells/well in 90 μL of culture media and incubated at 37° overnight to allow cell adhesion and spreading. Compound dilution series were prepared in DMSO via a 3-fold serial dilution from 3 mM to […]. The DMSO dilution series were then diluted 1:100 in phosphate buffered saline, and 10 μL of the resulted solution were added to the appropriate wells of the MX-1 cell plate. The final compound concentrations in the wells were 3, 1, 0.3, 0.1, 0.03, 0.01, 0.003, 0.001, 0.0003, 0.0001, and 0.00003 μM.
Luminescence readings from the Cell Titer Glo assay were normalized to the DMSO treated cells and analyzed using the GraphPad Prism software with sigmoidal curve fitting to obtain EC50s. The minimum significant ratio (MSR) was determined to evaluate assay reproducibility (Eastwood et al., (2006) J Biomol Screen, 11: 253-261). The overall MSR was determined to be 2.1 and a moving MSR (last six run MSR overtime) has been <2. The EC50 values are reported in Table 1 for the indicated compounds.

SMILES | EC50
CCOc1cc(=O)n(C)cc1-c1cc(NC(=O)Cc2ccc(-c3ccccc3)cc2)ccc1Oc1ccc(F)cc1F [Example 42, 2-(biphenyl-4-yl)-N-[4-(2,4-difluorophenoxy)-3-(4-ethoxy-1-methyl-6-oxo-1,6-dihydropyridin-3-yl)phenyl]acetamide] | 678 nM
CCOc1cc(=O)n(C)cc1-c1cc(NC(=O)Cc2ccc(OCc3ccccc3)cc2)ccc1Oc1ccc(F)cc1F [Example 45, 2-[4-(benzyloxy)phenyl]-N-[4-(2,4-difluorophenoxy)-3-(4-ethoxy-1-methyl-6-oxo-1,6-dihydropyridin-3-yl)phenyl]acetamide] | 981 nM
CCOc1cc(=O)n(C)cc1-c1cc(NC(=O)Cc2ccccc2OC)ccc1Oc1ccc(F)cc1F [Example 46, N-[4-(2,4-difluorophenoxy)-3-(4-ethoxy-1-methyl-6-oxo-1,6-dihydropyridin-3-yl)phenyl]-2-(2-methoxyphenyl)acetamide] | 449 nM
CCOc1cc(=O)n(C)cc1-c1cc(NCc2ccccc2C#N)ccc1Oc1ccc(F)cc1F [Example 57, 2-({[4-(2,4-difluorophenoxy)-3-(4-ethoxy-1-methyl-6-oxo-1,6-dihydropyridin-3-yl)phenyl]amino}methyl)benzonitrile] | 712 nM
CCOc1cc(=O)n(C)cc1-c1cc(NCc2ccc(F)cc2)ccc1Oc1ccc(F)cc1F [Example 64, 5-{2-(2,4-difluorophenoxy)-5-[(4-fluorobenzyl)amino]phenyl}-4-ethoxy-1-methylpyridin-2(1H)-one] | 508 nM
CCOc1cc(=O)n(C)cc1-c1cc(N(CC2CC2)S(=O)(=O)Cc2cc(F)ccc2Cl)ccc1Oc1ccc(F)cc1F [Example 66, 1-(2-chloro-5-fluorophenyl)-N-(cyclopropylmethyl)-N-[4-(2,4-difluorophenoxy)-3-(4-ethoxy-1-methyl-6-oxo-1,6-dihydropyridin-3-yl)phenyl]methanesulfonamide] | > 1000 nM
CCOc1cc(=O)n(C)cc1-c1cc(N(CC2CC2)C(=O)Cc2cc(F)ccc2Cl)ccc1Oc1ccc(F)cc1F [Example 67, 2-(2-chloro-5-fluorophenyl)-N-(cyclopropylmethyl)-N-[4-(2,4-difluorophenoxy)-3-(4-ethoxy-1-methyl-6-oxo-1,6-dihydropyridin-3-yl)phenyl]acetamide] | > 1000 nM
CCOc1cc(=O)n(C)cc1-c1cc(NC(=O)C(C)c2cc(F)ccc2Cl)ccc1Oc1ccc(F)cc1F (stereo not drawn) [Example 70, 2-(2-chloro-5-fluorophenyl)-N-[4-(2,4-difluorophenoxy)-3-(4-ethoxy-1-methyl-6-oxo-1,6-dihydropyridin-3-yl)phenyl]propanamide] | > 1000 nM
CCOc1cc(=O)n(C)cc1-c1cc(N(C)C(=O)Cc2cc(F)ccc2Cl)ccc1Oc1ccc(F)cc1F [Example 71, 2-(2-chloro-5-fluorophenyl)-N-[4-(2,4-difluorophenoxy)-3-(4-ethoxy-1-methyl-6-oxo-1,6-dihydropyridin-3-yl)phenyl]-N-methylacetamide] | > 1000 nM
CCOc1cc(=O)n(C)cc1-c1cc(N(CC2CC2)S(=O)(=O)CC)ccc1Oc1ccc(F)cc1F [Example 72, N-(cyclopropylmethyl)-N-[4-(2,4-difluorophenoxy)-3-(4-ethoxy-1-methyl-6-oxo-1,6-dihydropyridin-3-yl)phenyl]ethanesulfonamide] | 233 nM
CCOc1cc(=O)n(C)cc1-c1cc(N(Cc2ccccc2)S(=O)(=O)CC)ccc1Oc1ccc(F)cc1F [Example 73, N-benzyl-N-[4-(2,4-difluorophenoxy)-3-(4-ethoxy-1-methyl-6-oxo-1,6-dihydropyridin-3-yl)phenyl]ethanesulfonamide] | > 1000 nM
CCOc1cc(=O)n(C)cc1-c1cc(N(Cc2ccccc2Cl)S(=O)(=O)CC)ccc1Oc1ccc(F)cc1F [Example 74, N-(2-chlorobenzyl)-N-[4-(2,4-difluorophenoxy)-3-(4-ethoxy-1-methyl-6-oxo-1,6-dihydropyridin-3-yl)phenyl]ethanesulfonamide] | 464 nM
CCOc1cc(=O)n(C)cc1-c1cc(N(CCc2ccccc2)S(=O)(=O)CC)ccc1Oc1ccc(F)cc1F [Example 75, N-[4-(2,4-difluorophenoxy)-3-(4-ethoxy-1-methyl-6-oxo-1,6-dihydropyridin-3-yl)phenyl]-N-(2-phenylethyl)ethanesulfonamide] | 614 nM
CCOc1cc(=O)n(C)cc1-c1cc(N(CC2CC2)S(=O)(=O)Cc2ccccc2)ccc1Oc1ccc(F)cc1F [Example 76, N-(cyclopropylmethyl)-N-[4-(2,4-difluorophenoxy)-3-(4-ethoxy-1-methyl-6-oxo-1,6-dihydropyridin-3-yl)phenyl]-1-phenylmethanesulfonamide] | > 1000 nM
CCOc1cc(=O)n(C)cc1-c1cc(N(Cc2ccccc2)S(=O)(=O)Cc2ccccc2)ccc1Oc1ccc(F)cc1F [Example 77, N-benzyl-N-[4-(2,4-difluorophenoxy)-3-(4-ethoxy-1-methyl-6-oxo-1,6-dihydropyridin-3-yl)phenyl]-1-phenylmethanesulfonamide] | > 1000 nM
CCOc1cc(=O)n(C)cc1-c1cc(N(Cc2ccccc2Cl)S(=O)(=O)Cc2ccccc2)ccc1Oc1ccc(F)cc1F [Example 78, N-(2-chlorobenzyl)-N-[4-(2,4-difluorophenoxy)-3-(4-ethoxy-1-methyl-6-oxo-1,6-dihydropyridin-3-yl)phenyl]-1-phenylmethanesulfonamide] | > 1000 nM
CCOc1cc(=O)n(C)cc1-c1cc(N(CCc2ccccc2)S(=O)(=O)Cc2ccccc2)ccc1Oc1ccc(F)cc1F [Example 79, N-[4-(2,4-difluorophenoxy)-3-(4-ethoxy-1-methyl-6-oxo-1,6-dihydropyridin-3-yl)phenyl]-1-phenyl-N-(2-phenylethyl)methanesulfonamide] | > 1000 nM
CCOc1cc(=O)n(C)cc1-c1cc(N(CCc2ccccc2Cl)S(=O)(=O)CC)ccc1Oc1ccc(F)cc1F [Example 80, N-[2-(2-chlorophenyl)ethyl]-N-[4-(2,4-difluorophenoxy)-3-(4-ethoxy-1-methyl-6-oxo-1,6-dihydropyridin-3-yl)phenyl]ethanesulfonamide] | > 1000 nM
CCOc1cc(=O)n(C)cc1-c1cc(NC(=O)Cn2ccc(-c3ccccc3)n2)ccc1Oc1ccc(F)cc1F [Example 81, N-[4-(2,4-difluorophenoxy)-3-(4-ethoxy-1-methyl-6-oxo-1,6-dihydropyridin-3-yl)phenyl]-2-(3-phenyl-1H-pyrazol-1-yl)acetamide] | > 1000 nM
CCOc1cc(=O)n(C)cc1-c1cc(NC(=O)Cc2cc(Cl)ccc2F)ccc1Oc1ccc(F)cc1F [Example 82, 2-(5-chloro-2-fluorophenyl)-N-[4-(2,4-difluorophenoxy)-3-(4-ethoxy-1-methyl-6-oxo-1,6-dihydropyridin-3-yl)phenyl]acetamide] | > 1000 nM
CCOc1cc(=O)n(C)cc1-c1cc(NC(=O)Cc2csc(C)n2)ccc1Oc1ccc(F)cc1F [Example 83, N-[4-(2,4-difluorophenoxy)-3-(4-ethoxy-1-methyl-6-oxo-1,6-dihydropyridin-3-yl)phenyl]-2-(2-methyl-1,3-thiazol-4-yl)acetamide] | 304 nM
CCOc1cc(=O)n(C)cc1-c1cc(N(Cc2nccs2)S(=O)(=O)Cc2ccccc2)ccc1Oc1ccc(F)cc1F [Example 90, N-[4-(2,4-difluorophenoxy)-3-(4-ethoxy-1-methyl-6-oxo-1,6-dihydropyridin-3-yl)phenyl]-1-phenyl-N-(1,3-thiazol-2-ylmethyl)methanesulfonamide] | > 1000 nM
CCOc1cc(=O)n(C)cc1-c1cc(N(Cc2cccnc2)S(=O)(=O)CC)ccc1Oc1ccc(F)cc1F [Example 91, N-[4-(2,4-difluorophenoxy)-3-(4-ethoxy-1-methyl-6-oxo-1,6-dihydropyridin-3-yl)phenyl]-N-(pyridin-3-ylmethyl)ethanesulfonamide] | 505 nM
CCOc1cc(=O)n(C)cc1-c1cc(N(Cc2cccnc2)S(=O)(=O)Cc2ccccc2)ccc1Oc1ccc(F)cc1F [Example 92, N-[4-(2,4-difluorophenoxy)-3-(4-ethoxy-1-methyl-6-oxo-1,6-dihydropyridin-3-yl)phenyl]-1-phenyl-N-(pyridin-3-ylmethyl)methanesulfonamide] | > 1000 nM
CCOc1cc(=O)n(C)cc1-c1cc(N(Cc2cncnc2)S(=O)(=O)CC)ccc1Oc1ccc(F)cc1F [Example 93, N-[4-(2,4-difluorophenoxy)-3-(4-ethoxy-1-methyl-6-oxo-1,6-dihydropyridin-3-yl)phenyl]-N-(pyrimidin-5-ylmethyl)ethanesulfonamide] | > 1000 nM
CCOc1cc(=O)n(C)cc1-c1cc(N(Cc2cnccn2)S(=O)(=O)CC)ccc1Oc1ccc(F)cc1F [Example 95, N-[4-(2,4-difluorophenoxy)-3-(4-ethoxy-1-methyl-6-oxo-1,6-dihydropyridin-3-yl)phenyl]-N-(pyrazin-2-ylmethyl)ethanesulfonamide] | > 1000 nM
CCOc1cc(=O)n(C)cc1-c1cc(N(Cc2cnccn2)S(=O)(=O)Cc2ccccc2)ccc1Oc1ccc(F)cc1F [Example 96, N-[4-(2,4-difluorophenoxy)-3-(4-ethoxy-1-methyl-6-oxo-1,6-dihydropyridin-3-yl)phenyl]-1-phenyl-N-(pyrazin-2-ylmethyl)methanesulfonamide] | > 1000 nM
